From patent US20130149250A1, “HYPERPOLARIZED AGENTS FOR MRI CHARACTERIZATION OF REDOX SYSTEMS IN VIVO” (The Regents of the University of California, priority 2011, published 2013)
“Also recorded” adds a separate entry of the source. Blank lines part the entries; values can stand above or below the molecule they belong to.

Assays:
TRAMP tumors [1] = details: TRAMP mice, PET 50 minutes post injection
Description: FDG-PET: PET scans were performed on a small animal PET/CT scanner (Inveon, Siemens Healthcare, Malvern, Pa.). Mice were fasted overnight, anesthetized, and injected intravenously with 150-170 uCi FDG in 0.1-0.2 mL saline. PET images were acquired 50 minutes post injection in one 600 second frame. CT images were acquired in 120 projections of continuous rotation to cover 220° with x-ray tube operating at 80 kVp, 0.5 mA, and 175 ms exposure time. The matrix size of the reconstructed CT images was 512×512×662 with an isotropic voxel size of 0.191×0.191×0.191 mm^3 PET images were reconstructed using a manufacturer-provided ordered subsets expectation maximization (OS-EM) algorithm resulting in a 128×128×159 matrices with a voxel size of 0.776×0.776×0.796 mm^3 ROIs were drawn in both the tumors and surrounding tissue to calculate relative tumor signals.

normal mice [2] = details: mouse, in vivo
Description: (§1) The RF coil used in these experiments was a dual-tuned ^1H-^13C coil with a quadrature ^13C channel and linear ^1H channel construction used in ^13C mouse imaging studies. ^13C MRSI studies were carried out as previously published. 350 μl (mice) or 2 mL (rats) of a hyperpolarized 15 mM [1-^13C] DHA solution were injected similar to previously described methods for [1-^13C]pyruvate. Similar experiments were performed on a set of normal mice using hyperpolarized [1-^13C] Vitamin C at 50 mM.
(§2) Tissues with high exposure to environmental toxins, namely the liver, kidney and lungs, are known to be rich in GSH and were considered the most likely source for the hyperpolarized [1-^13C] Vitamin C signal observed in vivo. In addition, a contribution from highly glycolytic tissues was anticipated, given the rapid transport properties of dehydroascorbate. Analogous to experiments performed previously using hyperpolarized [1-^13C]pyruvate, 3D MRSI studies were conducted on a series of normal mice (n=3), TRAMP mice (n=3), and rats (n=3) using a dual-tuned RF coil.

rat brains = details: in vivo
Description: as §1, §2

TRAMP mice = details: mouse, in vivo
Description: as §1, §2

[3] = 11.7 T NMR studies (T1 of hyperpolarized ascorbates); type: physicochemical; details: spin-lattice relaxation of C1 carbon at 11.7 T; mean±SD
Description: NMR studies were performed on an 11.7 T Varian NOVA spectrometer (125 MHz ^13C, Varian Instruments) using a 10 mm ^15N/^31P/^13C broadband direct detect probe. Thermal and dynamic hyperpolarized spectra for [1-^13C] DHA and [1-^13C] Vitamin C were obtained as previously described, and used to calculate T1's and signal enhancements. For NMR studies of the reduction of [1-^13C] DHA to [1-^13C] Vitamin C, hyperpolarized [1-^13C] DHA was reacted with an excess of sodium cyanoborohydride (NaBH3CN).
(§3) In vitro methods to interrogate redox chemistry have relied on designer redox-sensitive fluorescent proteins (yellow- or green fluorescent protein) incorporating an artificial dithiol-disulfide pair, or on detection of ROS themselves via chemical switching. In general, fluorescent probes have limited clinical translation given poor tissue penetration; making MR-compatible hyperpolarized ^13C probes an attractive alternative. […] The material was polarized by using a DNP approach and dissolved with a hot water/EDTA solution, with T1's calculated as previously described. […] Vitamin C carbons are tabulated at both 11.7 T and 3 T, with the longest recorded T1 that of [1-^13C] […] Vitamin C were measured as 5.9±0.5% and 3.6±0.1% respectively, representing signal enhancements on the order of approximately 24,000 and 15,000-fold relative to thermal equilibrium at 3 T. […]

MCD mouse liver = assay: HP DHA 13C MRSI of liver in methionine choline deficient (MCD) diet NAFLD mouse model; type: in vivo
Description: Prior to and post diet, high-resolution T2 and fat-water imaging was conducted at 14 T using a Varian WB600 micro-imager and 40 mm 1H millipede coil (Varian Instruments, Palo Alto, Calif.). Lipid percentage maps were calculated from fat and water images acquired using a conventional spin-echo sequence using the Dixon method. 350 μL of hyperpolarized DHA was injected each mouse (n=4) at baseline and 2 weeks of MCD diet using a Hypersense (Oxford Instruments). 13C MRSI data was acquired using an EPSI readout, variable flip angle scheme, matrix size 16×8×8 and final voxel resolution of 6 mm isotropic on a 3 T GE MRI (GE Healthcare, Waukesha, Wis.) equipped with a multinuclear package and dual-tuned 1H-^13C imaging coil. […] Ratios of HP DHA and VitC were calculated from the peak integrals in 3D MRSI data. Mice were then sacrificed and liver tissue was sectioned for staining with hematoxylin and eosin (H&E, structure) and Oil Red (lipid presence). Livers of normal mice were used for histologic comparison.

TRAMP tumors [4] = assay: HP [1-13C] DHA 3D MRSI in TRAMP mice (Example 4); type: in vivo, mouse
Excerpt: Hyperpolarization and dissolution of [1-^13C] DHA: [1-^13C] DHA dimer was polarized and dissolved.

normal mice [5] = assay: Dynamic 13C MR spectroscopy after injection of hyperpolarized probe in normal mice; type: in vivo, mouse
Description: as §1
Evidence of in vivo transformation was determining having obtained data validating hyperpolarized [1-^13C] DHA as a redox probe. The transport of DHA in vivo occurs by a mechanism analogous to that of glucose, by facilitated diffusion using GLUT1, GLUT3, and GLUT4. Since glucose is known to compete with the uptake of DHA, in vivo experiments were performed on animals (mice and rats) fasted overnight. […] Dynamic MRSI studies were carried out as previously published. 350 μl of a hyperpolarized 15 mM [1-^13C] DHA solution were injected similar to previously described methods for [1-^13C] pyruvate, in normal mice with a ^13C urea phantom present for chemical shift reference. In a separate set of normal mice, similar experiments were performed using hyperpolarized [1-^13C] Vitamin C at a slightly higher concentration, 50 mM. […] DHA in a normal mouse. The DHA resonance at 174 ppm reached a maximum at 19±1.7 secs post injection. […] Vitamin C in vivo. This chemical shift was confirmed both in vitro at neutral pH using ^13C urea as a reference, as well as in vivo with hyperpolarized [1-^13C] Vitamin C itself injected in a separate animal.

[6] = DNP hyperpolarization (HyperSense, OX063 trityl radical): build-up and polarization; type: physicochemical; details: for Percent Polarization: DNP, 15 mM OX063; for Percent Polarization / Buildup Constant: mean±SD; for Buildup Constant: solid-state build-up constant
[7] = T1 studies of hyperpolarized ascorbates on a 3 T MRI scanner; type: physicochemical; details: spin-lattice relaxation of C1 carbon at 3 T; mean±SD
Description: as §1, §3

SMILES: O=C[C@H]([18F])[C@@H](O)[C@H](O)[C@H](O)CO [FDG, 2-18F-2-deoxy-D-glucose]
18F signal in regions of tumor relative to surrounding regions (TRAMP tumors [1]): 6.8±3.6

Vitamin C signal (normal mice [2]): no Vitamin C signal was observed | VitC/Total Carbon (rat brains): 0.51±0.1 | VitC/Total Carbon (TRAMP mice): 0.29±0.09 | 11.7T T1 [3]: 20.5 ± 0.9 s | VitC/DHA ratio (MCD mouse liver; after 2 weeks on MCD diet): 0.46±0.1 | VitC/VitC+DHA (MCD mouse liver; after 2 weeks on MCD diet): 0.30±0.5 | decrease in the VitC/DHA ratio from baseline (MCD mouse liver; after 2 weeks on MCD diet, P=0.005): 92% | decrease in the VitC/VitC+DHA ratio from baseline (MCD mouse liver; after 2 weeks on MCD diet, P=0.01): 48% | VitC/DHA ratio (MCD mouse liver; baseline): 0.98±0.09 | VitC/VitC+DHA (MCD mouse liver; baseline (normal liver)): 0.49±02 | Total HP 13C in tumors relative to surrounding tissue (TRAMP tumors [4]; TRAMP mice): 2.1±0.4 | tumor HP VitC/[VitC+DHA] relative to surrounding tissue (TRAMP tumors [4]; TRAMP mice): 7.0±2.3 | HP VitC (ratio of VitC to total HP signal) (TRAMP tumors [4]; TRAMP tumors (N=4)): 0.23±0.03 | HP VitC (ratio of VitC to total HP signal) (TRAMP tumors [4]; benign prostate, P=0.001): 0.06±0.03 | HP VitC (ratio of VitC to total HP signal) (TRAMP tumors [4]; surrounding tissues, P=0.005): 0.05±0.02 | time of maximum of DHA resonance (174 ppm) post injection (normal mice [5]; mouse, in vivo): 19 ± 1.7 s | time of maximum of metabolite resonance (177.8 ppm, [1-13C] Vitamin C) (normal mice [5]; mouse, in vivo): 29 ± 1.7 s | Percent Polarization [6]: 5.9±0.5% | signal enhancement relative to thermal equilibrium ([6]; at 3 T): approximately 24,000 fold | Buildup Constant [6]: 1120 ± 50 s
SMILES: O=C1C(=O)[13C](=O)O[C@@H]1[C@@H](O)CO [[1-^13C] DHA, [1-^13C] dehydroascorbate]

11.7T T1 [3]: 16.0 ± 0.8 s | 3T T1 [7]: 29.2 ± 2.5 s | Percent Polarization [6]: 3.6±0.1% | Buildup Constant [6]: 1756 ± 97 s
SMILES: O=[13C]1O[C@H]([C@@H](O)CO)C(O)=C1O [[1-^13C] Vitamin C, [1-^13C] ascorbic acid]
in vivo oxidation of hyperpolarized [1-13C] Vitamin C to [1-13C] DHA (normal mice [5]; 50 mM hyperpolarized [1-13C] Vitamin C, normal mice): trace oxidation; also recorded: trace conversion
